The results in this text go back to patent US20220409573A1, “Hippocampus Regeneration And Memory Recovery” (INNOBIOSCIENCE, LLC, priority 2021, published 2022).

Molecules are shown by their SMILES. Entries after “also recorded” stand apart in the source; their conditions may differ.

Experiment [1] has as its system APPswe/PS-1 double transgenic mice. As to the kind of experiment: Memory flexibility test (modified Morris Water Maze). The experiment is classed as in vivo. The note with it: 7-month-old APPswe/PS-1 mice, 2.0 mg/kg IP three times per week, four weeks, vs Tg control.
For experiment [2], the system named is GSK-3β. As to the kind of experiment: Immunoblot of GSK-3β phosphorylation and β-catenin in Wt hippocampal slices. The experiment is classed as cell-based, mice. How it is done: Immunoblotting. The hippocampus and cortex of treated or control transgenic mice were dissected on ice and immediately processed has detailed previously (Toledo & Inestrosa 2010). Briefly, hippocampal and cortical tissues were homogenized in RIPA buffer (10 mM Tris-Cl, pH 7.4, EDTA 5 mM, 1% NP-40, 1% sodium deoxycholate, and 1% SDS) supplemented with a protease inhibitor mixture and phosphatase inhibitors (25 mMNaF, […] and 30 μM Na4P207) using a Potter homogenizator and then passed sequentially through different caliber syringes. Protein samples were centrifuged at 14000 rpm at 4° C. twice for 15 min. Protein concentrations were determined using the BCA Protein Assay Kit (Pierce). Samples were resolved by SDS-PAGE followed by immunoblotting on PVDF membranes. Western blot assays were carried out as previously described (Inestrosa et al 2013; Toledo & Inestrosa 2010).
Slice Preparation and Electrophysiology. Hippocampal slices were prepared according to standard procedures previously described (Cerpa et al 2010; VarelaNallar et al 2010). Briefly, transverse slices (350 μm) from the dorsal hippocampus were cut under cold artificial cerebrospinal fluid (ACSF, in mM: 124 NaCl, […], 10 D-glucose, 2.69 KCl, 1.25 KH2PO4 2.5 CaCl2, 1.3 MgSO4, y 2.60 NaHPO4) using a V ibratome (Leica VT 1000s, Germany) and incubated in ACSF for 1 h at room temperature. In all experiments, 10 μM picrotoxin (PTX) was added to suppress inhibitory GABAA transmission (Cuitino et al 2010). Slices were transferred to an experimental chamber (2 ml), superfused (3 ml/min, at 20-22° C.) with gassed ACSF and visualized by trans-illumination with a binocular microscope (MSZ-10, Nikon, Melville, N.Y.). […] The paired pulse facilitation index was calculated by ((R2−R1)/R1), where R1 and R2 were the peak amplitudes of the first and second fEPSP respectively. […] Evoked postsynaptic responses were analyzed off-line, using an analysis software (pClampfit, Molecular Devices), which allowed visual detection of events, computing only those events that exceeded and arbitrary threshold.
A general note: In western blotting, separated proteins are transferred to a membrane and probed.

Experiment [3] relates to CA3-CA1 connections in hippocampal slices. As to the kind of experiment: Electrophysiology in Wt hippocampal slices (fEPSP, PPF, LTP, LTD). The experiment is classed as cell-based, mice. How it is done: Slice Preparation and Electrophysiology. […] Slices were transferred to an experimental chamber (2 ml), superfused (3 ml/min, at 20-22° C.) with gassed ACSF and visualized by trans-illumination with a binocular microscope (MSZ-10, Nikon, Melville, N.Y.). To evoke field excitatory postsynaptic potentials (fEPSPs), we stimulate with bipolar concentric electrodes (Platinum/Iridium, 125 μm OD diameter, FHC Inc., Bowdoin, Me.) generated by a stimulator (Axon 700b, Molecular Devices, Sunnyvale, Calif.) and connected to an isolation unit (Isoflex, AMPI, Jerusalem, Israel) . The stimulation was in the Stratum Radiatum within 100-200 μm from the recording site. The paired pulse facilitation index was calculated by ((R2−R1)/R1), where R1 and R2 were the peak amplitudes of the first and second fEPSP respectively. To generate LTP we used Theta Burst Stimulation (TBS) consisting of 5 trains of stimulus with an inter-train interval of 20 s. Each train consisted of 10 bursts at 5 Hz and each burst having 4 pulses at 100 Hz. To generate LTD we used Low Frequency Stimulation (LFS) consisting in 900 paired pulses at 1 Hz. Recordings were filtered at 2.0-3.0 kHz, sampled at 4.0 kHz using an A/D converter, and stored with pClamp 10 (Molecular Devices). Evoked postsynaptic responses were analyzed off-line, using an analysis software (pClampfit, Molecular Devices), which allowed visual detection of events, computing only those events that exceeded and arbitrary threshold.

Experiment [4] deals with HEK293T cells. As to the kind of experiment: TOP/FOP flash luciferase reporter assay. The experiment is classed as cell-based. How it is done:
Luciferase Assay. 150,000 HEK293T cells were seeded in triplicate per condition and kept for 24 hours at 37° C. with 5% CO2. The cultures were transfected with TOPflash or FOPflash (400 ng), which are firefly-luciferase reporter DNA constructs (Milipore), using LipofectAMINE 2000 (Invitrogen). To control for transfection pRL-TK (10 ng) was included in all transfections. […] Values were normalized by the renilla value from the same well. To statistically compare treatments ANOVA was used.
(In general: Reporter assays use an easily measured gene product as a stand-in for the process of interest.)

For experiment [5], the system named is Wnt target genes. As to the kind of experiment: PCR array of Wnt target genes in hippocampal neurons. The experiment is classed as cell-based, rat. How it is done:
Primary culture of rat hippocampal neurons. […] PCR-ARRAY. RNA from hippocampal neurons was extracted using Trizol. Quantification and purity of RNA preparations were checked by absorbance using Nanodrop ND-2000. Only preparations with a 260/280 nm ratio≥1.8, a 260/230 nm ratio ≥1,7 and no sign of RNA degradations, verified by agarose gel electrophoresis with Gel Red TM were used. Genomic DNA was degraded. Using RT2First-Strand cDNA Synthesis kit (SuperArray), 1 μg total RNA was reverse transcribed and then real-time PCR was performed by adding cDNA directly to PCR Master Mix, containing SYBR Green and ROX. The mixtures were then aliquoted into a 96-well PCR array plates, which profiles the expression of 84 Wnt target genes from rat. The PCR was run on ABI StepOnePlus, with 1 cycle of 10 min at 95° C. followed by 40 cycles of 15 s at 95° C. and 1 min at 60° C.
Treatment of neuronal cultures. Primary hippocampal cultures of neurons 14 DIV were washed twice in neurobasal medium and maintained for 1 hour.

[6] abbreviates: Wt hippocampal slices, 10 μM ANDRO for 1 hr.
Where [7] appears, read: 9 h treatment, of the 86 genes analyzed.

As to `C=C1CC[C@@H]2C(C)(CO)[C@H](O)CC[C@@]2(C)C1C/C=C1/C(=O)OC[C@H]1O` (stereo in doubt) [ANDRO, 3-(2-(Decahydro-6-hydroxy-5-(hydroxymethyl)-5,8a-dimethyl-2-methylenenaphthyl)ethylidene)dihydro-4-hydroxyfuran-2(3H)-one], the “number of trial to criterion of learning” value in experiment [1] is “reduction in the number of trial to criterion of learning”. Further, in experiment [2] (Wt hippocampal slices incubated with ANDRO), the “levels of β-catenin” value is recorded as “increase in the levels of β-catenin”. Besides, in experiment [2] (setting [6]), the “active form of GSK-3β (Tyr-216 phosphorylation)” value is “decrease of Tyr-216 phosphorylation; also recorded: reduction of the active form” and the “inactive form of GSK-3β (Ser-9 phosphorylation)” value is “increment of Ser-9 phosphorylation; also recorded: increase in the levels of the inactive form”. In addition, the “fEPSP amplitude (basal synaptic transmission)” value in experiment [3] (ANDRO (5 μM), 30 min, Wt slices) is recorded as “increased the fEPSP amplitude”. Further, the “paired pulse facilitation (PPF) ratio” value in experiment [3] (Wt slices) is “does not increase PPF ratio”. Moreover, the “LTP induction or maintenance” value in experiment [3] (Wt slices in presence of ANDRO, TBS) was “do not observed alteration in the LTP induction or maintenance”. Moreover, in experiment [3] (hippocampal slices, 6-BIO 10 nM), the “induction of LTD (fEPSP slope after LFS)” value is reported as “LTD was inhibited”. Further, the TOPflash reporter activity entry in experiment [4] (ANDRO 10 μM or 6-BIO 10 nM, 24 h) was “significant increase”. The “increase of luciferase reporter over control” value in experiment [4] (TOPflash, HEK293T) stood at 4 fold. The Cdh-1 gene expression entry in experiment [5] is given as “differential expression”. In experiment [5] (setting [7]), the “number of Wnt target genes specifically modulated” value is reported as 3 genes; the “number of changed Wnt target genes shared by ANDRO and 6-BIO” value came out at 4 genes. Further, in experiment [5] (after Bonferroni correction), the Ets2 gene expression entry is given as “down-regulation of Ets2 gene”.
